In patent US4757151A, “2-substituted-[2-substituted-amino]-N-arylalkyl-3-[indol-3-yl]” (Warner-Lambert Company, priority 1986, dated 1988):
pKi: −log10 of the molar value.

How the values were obtained:
CCK receptor = target: T1, CCK receptor (Mus musculus, UniProt P56481); experiment: displacement of tritiated pentagastrin binding to mouse cerebral cortical membranes (CCK receptor binding screening test); set-up: species or system male CFLP mice; conditions: tritiated pentagastrin (2 nM) displacement, Cheng-Prusoff
T1 construct: the cerebral cortices from male CFLP mice weighing between 30-40 g were dissected on ice, weighed and homogenized; from tissue; host or cells: cerebral cortex membranes of male CFLP mice
T1 sequence (P56481 1-453): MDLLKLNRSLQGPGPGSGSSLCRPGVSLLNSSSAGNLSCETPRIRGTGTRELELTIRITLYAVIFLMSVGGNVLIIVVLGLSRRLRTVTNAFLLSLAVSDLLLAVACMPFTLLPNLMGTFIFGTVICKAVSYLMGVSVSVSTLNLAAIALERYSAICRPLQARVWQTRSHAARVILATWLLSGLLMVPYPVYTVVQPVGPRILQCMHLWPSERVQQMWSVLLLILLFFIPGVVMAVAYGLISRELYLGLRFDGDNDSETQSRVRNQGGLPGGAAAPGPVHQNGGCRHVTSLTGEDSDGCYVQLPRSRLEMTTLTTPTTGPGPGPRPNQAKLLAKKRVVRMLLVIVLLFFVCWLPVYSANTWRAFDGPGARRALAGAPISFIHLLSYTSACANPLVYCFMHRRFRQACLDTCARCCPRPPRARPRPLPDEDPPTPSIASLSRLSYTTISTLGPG
Method: The biological activities of compounds of this invention were evaluated employing an initial screening test which rapidly and accurately measured the binding of the tested compound to known CCK receptor cites. […] (See Hays et al., Neuropeptides, 1: 53-62 (1980); and Sauter et al., Science, 208: 1155-1156 (1980).
In the screening test, the cerebral cortices from male CFLP mice weighing between 30-40 g were dissected on ice, weighed and homogenized in 10 volumes of 50 mM Tris-HCl buffer (pH 7.4 at 0°-4° C.). The resulting suspension was centrifuged, the supernate was discarded, and the pellet was washed by resuspension in Tris-HCl buffer followed by recentrifugation.
The final pellet was resuspended in 10 volumes of 10 mM Hepes buffer (pH 7.2 at 23° C.) containing 130 mM NaCl, 4.7 mM KCl, 1 mM EDTA, 5 mg/ml bovine albumin, and bacitracin (0.25 mg/ml). […]
Following incubation, radioactivity bound to membranes was separated from that free in solution by rapid filtration through Whatman GF/B filters and washed three times with 4-ml portions of ice-cold Tris-HCl buffer. Filters from samples incubated with tritiated pentagastrin were placed in polyethylene vials with 8 ml of scintillation cocktail, and the radioactivity was estimated by scintillation spectrometry (efficiency 47-52%). […]
Saturation curves for specific tritiated pentagastrin binding to mouse cortical membranes were analyzed by statisitcal methods to provide estimates for the maximum number of binding sites (Bmax) and the equilibrium dissociation constant (Kd).
In the displacement experiements, inhibition curves were analyzed by logit-log plots to provide estimates of the IC50 and nH (apparent Hill coefficient) values. […]
The inhibition constant, Ki, of the test compound was then calculated according to the Cheng-Prusoff equation: [formula] where [L] is the molar concentration of radiolabel and Kd is the equilibrium dissociation constant.

[1] = percent repression of food intake (appetite suppression) in laboratory rats trained to a six hour feeding period; assay type: in vivo, adult male Wistar rats
Excerpt: In this screen, adult male Wistar rats weighing between 250-400 g were housed individually and trained to consume their daily intake of food within a six hour period. Food was then withdrawn for the remaining eighteen hour period of each day. Drinking water was available at all times, and the animals were maintained on a twelve hour light/twelve hour dark cycle. This training regimen was maintained for a seven-day period. Powdered, rather than pelletized, food was used to minimize spillage and to facilitate measurement of food intake.
On each test day, a group of twelve rats was used, six receiving a single dose of test compound and six serving as a control group. Immediately after dosing, the rats were allowed access to food. Food intake was then monitored over the next six-hour period. The food hoppers were weighed at intervals of 30 minutes, and at 1, 2, 3, 4, 5, and 6 hours after administration of the test compound. The percent repression of food intake of laboratory rats under these conditions for the prior art octapeptide, CCK26-33, and for several compounds of the present invention appear in Table 2.

| Compound | pKi (CCK receptor) | Percent Repression of Food Intake After 0.5 Hours ([1]; I.P. 300 mg/kg) [%] | Percent Repression of Food Intake After 1.0 Hours ([1]; I.P. 300 mg/kg) [%] | Percent Repression of Food Intake After 3.0 Hours ([1]; I.P. 300 mg/kg) [%] | Percent Repression of Food Intake After 6.0 Hours ([1]; I.P. 300 mg/kg) [%] | Percent Repression of Food Intake After 0.5 Hours ([1]; I.P. 100 mg/kg) [%] | Percent Repression of Food Intake After 1.0 Hours ([1]; I.P. 100 mg/kg) [%] | Percent Repression of Food Intake After 3.0 Hours ([1]; I.P. 100 mg/kg) [%] | Percent Repression of Food Intake After 6.0 Hours ([1]; I.P. 100 mg/kg) [%] | other results |
| --- | --- | --- | --- | --- | --- | --- | --- | --- | --- | --- |
| CCC(C)(C)OC(=O)NC(C)(Cc1c[nH]c2ccccc12)C(=O)NC(CO)Cc1ccccc1 (stereo not shown) [Example 7, [2-[[1-(Hydroxymethyl)-2-phenylethyl]-amino]-1-(1H-indol-3-ylmethyl)-1-methyl-2-oxoethyl]-carbamic acid, 1,1-dimethylpropyl ester] | 5.17 | 64 | 45 | 23 | 11 |  |  |  |  |  |
| CC(C)(C)OC(=O)N[C@@](C)(Cc1c[nH]c2ccccc12)C(=O)N[C@@H](Cc1ccccc1)C(N)=O (single isomer, unassigned) [Example 2, N-[(1,1-Dimethylethoxy)carbonyl]-α-methyltryptophyl-L-phenylalaninamide] | 5.22 |  |  |  |  | 66 | 54 | 1 | 0 | Percent Repression of Food Intake After 0.5 Hours ([1]; I.P. 4 mg/kg): 24%; Percent Repression of Food Intake After 1.0 Hours ([1]; I.P. 4 mg/kg): 13%; Percent Repression of Food Intake After 3.0 Hours ([1]; I.P. 4 mg/kg): 19%; Percent Repression of Food Intake After 6.0 Hours ([1]; I.P. 4 mg/kg): 14% |
| CC(Cc1c[nH]c2ccccc12)(NC(=O)OC(C)(C)C(Cl)(Cl)Cl)C(=O)NCCc1ccccn1 (racemic) [Example 19, (±)-[1-(1H-Indol-3-ylmethyl)-1-methyl-2-oxo-2-[[2-(2-pyridinyl)ethyl]amino]ethyl]carbamic acid, 2,2,2-trichloro-1,1-dimethylethyl ester] |  | 35 | 49 | 60 | 55 |  |  |  |  | Percent Repression of Food Intake After 0.5 Hours ([1]; P.O. 300 mg/kg): 78%; Percent Repression of Food Intake After 1.0 Hours ([1]; P.O. 300 mg/kg): 68%; Percent Repression of Food Intake After 3.0 Hours ([1]; P.O. 300 mg/kg): 52%; Percent Repression of Food Intake After 6.0 Hours ([1]; P.O. 300 mg/kg): 52% |
| CCC(C)(C)OC(=O)NC(C)(Cc1c[nH]c2ccccc12)C(=O)NCCc1ccccc1 (stereo not shown) [Example 6, [1-(1H-Indol-3-ylmethyl)-1-methyl-2-oxo-2-[(2-phenylethyl)amino]ethyl]-carbamic acid, 1,1-dimethylpropyl ester] | 5.19 |  |  |  |  | 8 | 22 | 36 | 13 |  |
| CCK26-33: prior art octapeptide, carboxyl-terminus fragment of cholecystokinin [reference compound] |  |  |  |  |  |  |  |  |  | Percent Repression of Food Intake After 0.5 Hours ([1]; I.P. 5 mg/kg): 50%; Percent Repression of Food Intake After 1.0 Hours ([1]; I.P. 5 mg/kg): 40%; Percent Repression of Food Intake After 3.0 Hours ([1]; I.P. 5 mg/kg): 3%; Percent Repression of Food Intake After 6.0 Hours ([1]; I.P. 5 mg/kg): 12% |
